Results as given in US20120232127A1, “REGULATION OF NEUROTRANSMITTER RELEASE THROUGH ANION CHANNELS” (KOREA INSTITUTE OF SCIENCE AND TECHNOLOGY, priority 2008, published 2012).
Entries after “also recorded” stand apart in the source; their conditions may differ. Values belong to the compound of their own block, whether it stands above or below them.

What was measured:
[1] = tested on: Ca2+-activated anion channels (CAACs); test: Gramicidin-D perforated patch clamp of TFLLR-induced inward current in cultured astrocytes; format: cell-based, mouse
Method: (§1) The External solution was comprised of (in mM) 150 NaCl, 10 HEPES, 3 KCl, 2 CaCl2, 2 MgCl2, 5.5 glucose, at pH 7.3 (˜320 mOsm). For voltage clamp recordings, the internal solution contained 25 μg/ml gramicidin D and (in mM) 75 Cs2SO4, 10 NaCl, 0.1 CaCl2, and 10 HEPES, at pH 7.1 (˜310 mOsm). For current clamp recordings, the internal solution contained 25 μg/ml gramicidin D and (in mM) 75 K2SO4, 10 KCl, 0.1 CaCl2, and 10 HEPES, at pH 7.1 (˜310 mOsm). Pipette resistances ranged from 5 to 8 MΩ. For perforated patch clamp, it took 20 to 30 min to achieve acceptable perforation, with final series resistances ranging from 15 to 40 MΩ.
(§2) To test if activation of PAR1 by its specific agonist (e.g., TFLLR) causes any change in membrane conductance that might contribute to glutamate release from astrocytes, the whole cell currents and intracellular Ca^2+ responses in cultured astrocytes under gramicidin-D perforated patch configuration were simultaneously recorded (FIG. 1a). This technique minimized dialysis of intracellular ions.

[2] = tested on: intracellular Ca2+ in cultured astrocytes; test: Ca2+ imaging of TFLLR-induced [Ca2+]i transient in cultured astrocytes; format: cell-based, mouse
Method: as §1, §2

[3] = target: T1, Ca2+-activated anion channels (CAACs) (Mus musculus, UniProt O88870, R255K); test: Gramicidin-D perforated patch clamp of TFLLR-induced inward current in cultured astrocytes; format: cell-based; conditions: for block of TFLLR-induced current: 100 μM blocker, cultured astrocytes; for block of the current by CAACs: astrocytes
T1 construct: endogenous in cells; host or cells: cultured mouse cortical astrocytes
T1 sequence (O88870 1-551 R255K): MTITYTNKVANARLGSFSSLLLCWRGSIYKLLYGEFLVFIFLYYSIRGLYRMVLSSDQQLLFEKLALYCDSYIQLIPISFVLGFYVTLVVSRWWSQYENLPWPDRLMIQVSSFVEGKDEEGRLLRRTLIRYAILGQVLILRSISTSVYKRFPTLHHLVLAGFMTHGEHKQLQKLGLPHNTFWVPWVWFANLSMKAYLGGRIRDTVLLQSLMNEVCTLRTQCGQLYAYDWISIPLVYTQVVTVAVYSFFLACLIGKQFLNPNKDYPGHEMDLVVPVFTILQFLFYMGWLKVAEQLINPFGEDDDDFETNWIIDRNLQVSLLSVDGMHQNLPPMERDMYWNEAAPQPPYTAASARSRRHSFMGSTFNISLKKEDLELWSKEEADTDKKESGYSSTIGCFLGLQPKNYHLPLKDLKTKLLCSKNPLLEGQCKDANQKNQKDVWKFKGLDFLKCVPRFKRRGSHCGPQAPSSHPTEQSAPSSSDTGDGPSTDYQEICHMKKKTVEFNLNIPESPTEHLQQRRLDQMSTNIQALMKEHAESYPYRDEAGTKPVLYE
Method: as §1, §2

[4] = tested on: glutamate release from cultured astrocytes; test: TFLLR-evoked efflux of radiotracer from [3H]-glutamate-loaded cultures; format: cell-based
NMDA receptor (NMDAR) = test: Voltage clamp of NMDAR-mediated mEPSC decay and NMDAR-mediated current
[5] = target: T2, Ca2+-activated anion channels (CAACs) (Mus musculus, UniProt O88870); test: Gramicidin-D perforated patch clamp of TFLLR-induced inward current in cultured astrocytes; format: cell-based; conditions: cultured astrocytes, voltage-independent block
T2 construct: endogenous in cells; host or cells: cultured mouse cortical astrocytes
T2 sequence (O88870 1-551 R255K): T1 sequence (O88870 1-551 R255K)
Method: as §1, §2

astrocytic CAACs = target: T3, astrocytic CAACs (Mus musculus, UniProt O88870, R255K); test: Whole-cell patch clamp, astrocytic CAAC current directly activated by 4.5 μM internal Ca2+; format: cell-based; conditions: internal solution with 4.5 μM Ca2+
T3 construct: endogenous in cells; host or cells: cultured mouse cortical astrocytes
T3 sequence (O88870 1-551 R255K): T1 sequence (O88870 1-551 R255K)
Method: Patch pipettes which have 3-6MΩ of resistance are filled with the standard intracellular solution. Current voltage curves were established by applying 100- or 200-ms-duration voltage ramps from −100 to +100 mV. […]. Data were acquired by an Axopatch 200A amplifier controlled by Clampex 9.0 via a Digidata 1322A data acquisition system (Molecular Devices). Experiments were conducted at room temperature (20˜24° C.). The standard pipette solution was comprised of (in mM) 146 CsCl, 2 MgCl2, 5 (Ca^2+)-EGTA, 8 HEPES, and 10 sucrose, at pH 7.3, adjusted with CsOH. The concentration of free [Ca^2+]i in the solution was determined (Kuruma, A. & Hartzell, H. C. Bimodal control of a Ca(^2+)-activated Cl(−) channel by difference Ca(^2+) signals. J Gen Physiol 115, 59-80 (2000), which is hereby incorporated by reference for all purposes as if fully set forth herein). The standard extracellular solution was comprised of (in mM) 140 NaCl, 5 KCl, 2 CaCl2, 1 MgCl2, 15 glucose, and 10 HEPES, with pH 7.3 as adjusted using NaOH.
Because CAACs can permeate large anions and could be directly activated by applying internal solutions with known Ca^2+ concentrations, it was tested whether astrocytic CAACs can permeate glutamate by directly applying internal solutions containing 4.5 μM of Ca^2+ at which level CAACs are maximally activated (FIG. 10).

[6] = tested on: evoked EPSPs in hippocampal slices; test: Current clamp of evoked EPSPs, Schaffer collateral to CA1 pyramidal neuron synapse in hippocampal slices; conditions: 30 μM niflumic acid
Method: To assess whether CAAC-dependent glutamate release in astrocytes occurs and enhances synaptic potentials in vivo, a series of current clamp experiments were carried out to directly measure the effects of CAAC-dependent glutamate release on the evoked EPSPs (eEPSPs) of the Schaffer collateral to CA1 pyramidal neuron synapse in hippocampal slices. Under the similar recording conditions as previously described in ‘Lee, C. J. et al. Astrocytic control of synaptic NMDA receptors.

[7] = tested on: CAACs expressed in Xenopus laevis oocytes; conditions: read-out: reported IC50 value for CAACs expressed in Xenopus laevis oocytes; cited from earlier work
[8] = target: T4, astrocytic CAAC / mBest1 channel (glutamate release) (Mus musculus, UniProt O88870, R255K); test: Sniffer patch: astrocyte to GluR1 (L497Y)-expressing HEK293T cell pairs, TFLLR-induced glutamate release; format: cell-based; conditions: sniffer patch, cultured astrocytes as glutamate source
T4 construct: endogenous in cells; host or cells: cultured mouse cortical astrocytes
T4 sequence (O88870 1-551 R255K): T1 sequence (O88870 1-551 R255K)
Method: The sniffer patch technique, which is used for determining whether or not one is permeable to glutamate, was performed as described in Lee, C. J. et al. Astrocytic control of synaptic NMDA receptors. J Physiol 581, 1057-81 (2007), which is hereby incorporated by reference for all purposes as if fully set forth herein.
2. In experiments using astrocyte-HEK293T cell pairs, the sniffer patch techniques used naïve, scrambled- or mBest1-specific shRNA expressing (with GFP) astrocytes as a glutamate source; and GluR1 (L497Y) expressing HEK293T cells (with DsRED) as a detector. After obtaining gigaohm sealing, GluR1 (L497Y)-expressing cell was firstly ruptured, and then counterpart astrocytes were pressure-applied with 500 uM of TFLLR to evoke an increase in astrocytic intracellular Ca^2+ and resulting glutamate release onto the adjacent HEK293T cells.
GluR1LY-expressing detector cells were patched with the pipette solution pH 7.3 containing 110 mM CsGluconate, 30 mM CsCl, 5 mM HEPES, 4 mM NaCl, 2 mM MgCl2, 5 mM EGTA, and 1 mM CaCl2. The percentage of GluR1 (L497Y)-mediated current to the full activation level was analyzed by dividing the current amplitude of GluR1 (L497Y) current obtained through sniffer patch measurement by that of fully activated GluR1 (L497Y) current in the same cells.
The glutamate release through astrocytic CAACs was examined by using “sniffer-patch” technique and recording real-time glutamate release from cultured astrocytes (FIG. 10a). Using this technique, the present inventors observed that TFLLR-induced astrocytic glutamate release into an adjacent HEK293T cells expressing the non-desensitizing AMPA receptor subunit GluR1 (L497Y) mutant evoked an inward current sensitive to AMPA receptor antagonists, which is interpreted to reflect release of glutamate. The effects of TFLLR on current responses in transfected HEK293T cells was blocked by the treatment of niflumic acid (% block by niflumic acid=66.6±5.7%, FIGS. 10d to 10f), which is consistent with the idea that astrocytic CAAC is permeable to glutamate.

[9] = BAPTA-AM, 50 μM preincubation for 30 min
[10] = U73122 2 μM, preincubation 10 min
[11] = thapsigargin 100 nM, preincubation 5 min
[12] = thapsigargin 100 nM, preincubation 5 min, listed as Thapsigargin

Compound: CC(=O)OCOC(=O)CN(CC(=O)OCOC(C)=O)c1ccccc1OCCOc1ccccc1N(CC(=O)OCOC(C)=O)CC(=O)OCOC(C)=O [BAPTA-AM]
effect on TFLLR-induced current [1, 9]: eliminated; also recorded: inhibition | effect on TFLLR-induced [Ca2+]i transient [2, 9]: eliminated; also recorded: inhibition

block of TFLLR-induced current [3]: blocked
Compound: O=C(O)c1cc([N+](=O)[O-])ccc1NCCCc1ccccc1 [NPPB, 5-nitro-2(3-phenylpropylamino)-benzoic acid]

Compound: COc1ccc2c(c1)CC[C@@H]1[C@@H]2CC[C@]2(C)[C@@H](NCCCCCCN3C(=O)C=CC3=O)CC[C@@H]12 [U73122]
effect on TFLLR-induced inward current [1, 10]: reduced; also recorded: inhibition | effect on TFLLR-induced [Ca2+]i increase [2, 10]: reduced; also recorded: inhibition

block of the current by CAACs ([3]; 100 μM): did not block
Compound: CC1(C)[C@@H](OC(=O)CCC(=O)O)CC[C@]2(C)[C@H]3C(=O)C=C4[C@@H]5C[C@@](C)(C(=O)O)CC[C@]5(C)CC[C@@]4(C)[C@]3(C)CC[C@@H]12 [carbenoxolone]

block of TFLLR-induced current [3]: blocked
Compound: O=C(O)c1ccccc1Nc1cccc(C(F)(F)F)c1 [flufenamic acid]
inhibition of TFLLR-evoked efflux of radiotracer from [3H]-glutamate-loaded cultures [4]: 57%

Compound: O=C(O)c1cccnc1Nc1cccc(C(F)(F)F)c1 [niflumic acid]
effect on NMDAR-mediated current amplitude (NMDA receptor (NMDAR)): minimally affected | TFLLR-induced prolongation of slow NMDAR-mediated component of mEPSC decay (NMDA receptor (NMDAR); voltage clamp): sensitive | block of TFLLR-induced current [3]: blocked; also recorded: inhibited | block of TFLLR-induced current ([3]; listed as Niflumic acid): blocked | IC50 [5]: 9.8 µM | block of directly activated non-desensitizing CAAC current (astrocytic CAACs): readily blocked | effect on TFLLR enhancement of eEPSP [6]: blocked; also recorded: not statistically significant | inhibition of TFLLR-evoked efflux of radiotracer from [3H]-glutamate-loaded cultures [4]: 69% | effect on TFLLR-induced increases in intracellular Ca2+ ([2]; 100 μM niflumic acid, n=5): attenuated but did not completely block | IC50 [7]: 10.1 µM | % block of TFLLR effect on current responses in GluR1 (L497Y)-transfected HEK293T cells [8]: 66.6±5.7%

Compound: C/C=C(/C)C(=O)O[C@H]1C(C)=C2[C@H]([C@@H]1OC(=O)CCCCCCC)[C@@](C)(OC(C)=O)C[C@H](OC(=O)CCC)[C@@]1(O)[C@H]2OC(=O)[C@@]1(C)O [thapsigargin]
effect on TFLLR-induced inward current [1, 11]: reduced | effect on TFLLR-induced inward current [1, 12]: inhibition | effect on TFLLR-induced [Ca2+]i increase [2, 11]: reduced | effect on TFLLR-induced [Ca2+]i increase [2, 12]: inhibition

Compound: chlorotoxin
block of the current by CAACs ([3]; 1 μM): did not block
